Data taken from PubChem BioAssay (NCI).
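Five concentrations, 48 hours, 96-well plates. Definition used: TGI = concentration required for complete inhibition of growth.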

What was measured:
Experiment in all cases: NCI tumour cell line growth inhibition, 48 h
KM12 colon = tested on: KM12 colon
DMS 114 small cell lung = tested on: DMS 114 small cell lung
SN12C renal = tested on: SN12C renal
M19-MEL melanoma = tested on: M19-MEL melanoma
KM20L2 colon = tested on: KM20L2 colon
LOX IMVI melanoma = tested on: LOX IMVI melanoma
DLD-1 colon = tested on: DLD-1 colon
COLO 205 colon = tested on: COLO 205 colon
TK-10 renal = tested on: TK-10 renal
MCF7 breast = tested on: MCF7 breast
MDA-MB-435 = tested on: MDA-MB-435
NCI/ADR-RES ovarian = tested on: NCI/ADR-RES ovarian

Row | Compound | TGI (KM12 colon) | TGI (DMS 114 small cell lung) | TGI (SN12C renal) | TGI (M19-MEL melanoma) | TGI (KM20L2 colon) | TGI (LOX IMVI melanoma) | TGI (DLD-1 colon) | TGI (COLO 205 colon) | TGI (TK-10 renal) | TGI (MCF7 breast) | TGI (MDA-MB-435) | TGI (NCI/ADR-RES ovarian)
1 | C#CC1(O)CCC2[C@@H]3CCc4cc(Oc5nc(F)nc(-c6c7ccccc7cn6C)n5)ccc4C3CC[C@@]21C (stereo not given in full) | > 100 µM | > 53.2 µM | > 100 µM | > 100 µM | > 100 µM | > 100 µM | > 73.5 µM | > 100 µM | > 100 µM | – | – | –
2 | CC(=O)OC1CC[C@@]2(C)C(CC[C@]3(C)C2CC=C2[C@@H]4C(C)[C@H](C)CCC4(C)CCC23C)[C@@]1(C)C(=O)O (stereo not given in full) | 53.9 µM | 39.6 µM | 53.2 µM | 51 µM | 29.4 µM | 51.7 µM | 46.4 µM | 45 µM | 30.7 µM | 25.8 µM | 40.6 µM | 45 µM
3 | CC(=O)N(O)Cc1ccccc1 | > 100 µM | > 100 µM | > 100 µM | > 100 µM | > 100 µM | > 100 µM | > 100 µM | > 100 µM | > 100 µM | – | – | –
4 | S=C=NCCc1ccccc1 | 1.48 µM | 1.97 µM | 0.987 µM | 2.95 µM | 6.68 µM | 0.66 µM | 0.324 µM | 3.07 µM | 3.34 µM | – | – | –
5 | COc1cccc2c1C(=O)OC2c1cccc2ccccc12 (stereo not given) | > 100 µM | > 100 µM | > 100 µM | > 100 µM | > 100 µM | > 100 µM | > 100 µM | > 100 µM | > 100 µM | > 100 µM | > 100 µM | > 100 µM
6 | COC(=O)/C=c1\s/c(=C\C(=O)OC)c2ccccc12 | > 100 µM | > 100 µM | > 100 µM | > 100 µM | > 100 µM | > 100 µM | > 100 µM | > 100 µM | > 100 µM | – | – | –
7 | CCOC(=O)/C(=C/c1ccc(N(CCC#N)CCC#N)cc1C)NC(=O)/C=C/c1ccccc1 | > 100 µM | > 100 µM | > 100 µM | > 100 µM | > 100 µM | > 100 µM | > 100 µM | > 100 µM | > 100 µM | – | – | –
8 | Cc1cc(=O)[nH]c(CNC(=O)c2cccc(C(=O)NCc3cc(=O)[nH]c(C)n3)c2)n1 | > 100 µM | > 100 µM | > 100 µM | > 100 µM | > 100 µM | > 100 µM | > 100 µM | > 100 µM | > 100 µM | – | – | –
9 | CCOC(=O)C1([Se]c2ccccc2)CCCC1=O (stereo not given) | > 100 µM | 15.3 µM | 30.5 µM | 51.1 µM | > 100 µM | 26.7 µM | 32.9 µM | 30.8 µM | > 100 µM | – | – | –
10 | Cc1nc2sccn2c1C(=O)NC(=O)Nc1ccc(Cl)cc1 | > 100 µM | > 100 µM | > 100 µM | > 100 µM | > 100 µM | > 100 µM | > 100 µM | > 100 µM | > 100 µM | – | – | –
11 | CC[N+](C)(CC)CC(C)(C)C(=O)/C=C/c1ccc(/C=C/C(=O)C(C)(C)C[N+](C)(CC)CC)cc1 | > 100 µM | > 100 µM | > 100 µM | > 100 µM | > 100 µM | > 100 µM | > 100 µM | > 100 µM | > 100 µM | – | – | –
